We go through 28 molecules from ChEMBL document CHEMBL1125586, “Novel thiophene-, pyrrole-, furan-, and benzenecarboxamidotetrazoles as potential antiallergy agents” (J Med Chem, 1991).

Converted amounts (≈) assume the structure as drawn.

For data set [1], the species on record is Homo sapiens. Kind of data set: cells.
Description: Percent inhibition of histamine release from human basophils at a concentration of 33 uM.
Data set [2] in a line: physchem. As to conditions: buffer, pH 7.4.
Description: Solubility was determined at pH 7.4
For data set [3], the species on record is Homo sapiens. Kind of data set: cells. The source holds these as a separate data set.
Description: Compound was tested for the concentration to inhibit 50% of anti-IgE-stimulated histamine release from human basophils.
Data set [4] is described as follows: physchem. Conditions: buffer, pH 7.4. This is another data set of the same source.
Description: Log P value was determined at pH 7.4 using correlation (HPLC) method.
The species named for data set [5] is Homo sapiens. Kind of data set: cells. The source holds these as a separate data set.
Description: Percent inhibition of histamine release from human basophils at a concentration of 10 uM.

Consider `COc1ccc2sc(C(=O)Nc3nnn[nH]3)c(OC(C)C)c2c1`, for which 33 µM produced 97% inhibition in data set [1]. Further, the concentration in solution in data set [2] (solubility) came to 1840 µg/mL (≈ 5.52 mM). Moreover, in data set [3], half-maximal inhibition (IC50) was put at 1.1 µM. Also, in data set [4], the chromatographic logD (commonly lipophilicity estimated from chromatographic retention) was 1.78. For the same molecule, in data set [5], at 10 µM the inhibition was 95%.

Consider `COc1sc(C(=O)Nc2nn[nH]n2)c(OC(C)C)c1Br`, for which, in data set [1], the inhibition (commonly the drop in the measured response relative to a control, in per cent) at 33 µM amounted to 95%. For the same molecule, in data set [2], the solubility (in general, how much of the substance goes into solution per volume) came out at 1900 µg/mL (≈ 5.25 mM). Further, in data set [3], the midpoint of inhibition, the IC50, lay at 2 µM. In data set [4], this molecule showed a chromatographic logD of 1.35. This molecule came in with an inhibition at 10 µM in data set [5] of 92%.

`Cc1sc(C(=O)Nc2nn[nH]n2)c(SC(C)C)c1Br` came in with an inhibition at 33 µM in data set [1] of 90%. The IC50 – broadly, the concentration needed to halve the response being measured – in data set [3] worked out at 5 µM. This molecule also came in with an inhibition at 10 µM in data set [5] of 74%.

For the molecule `CCOc1c(C(=O)Nc2nn[nH]n2)sc(C)c1Br`, the inhibition at 33 µM in data set [1] came out at 100%. The same molecule came in with a half-inhibitory concentration (IC50) in data set [3] of 5 µM. Testing at 10 µM in data set [5] gave an inhibition of 77%.

As for `CC(C)Oc1c(C(=O)Nc2nn[nH]n2)sc(C(C)C)c1Br`, the inhibition at 33 µM in data set [1] was below 25%. In addition, the inhibition at 10 µM in data set [5] was below 25%.

In data set [1], `CC(C)Oc1c(Br)c(Br)n(C)c1C(=O)Nc1nn[nH]n1` registered an inhibition at 33 µM of 69%. For the same molecule, in data set [2], the concentration in solution (solubility) was 1900 µg/mL (≈ 4.66 mM). This molecule also displayed an IC50 in data set [3] of 25 µM. In data set [4], this molecule showed a chromatographic logD of 2.52. Besides, the inhibition at 10 µM in data set [5] was determined as 37%.

In the case of `Cc1sc(C(=O)Nc2nn[nH]n2)c(OC(C)C)c1Cl`, the inhibition at 33 µM in data set [1] was 88%. The same molecule displayed a half-inhibitory concentration (IC50) in data set [3] of 8 µM. Besides, testing at 10 µM in data set [5] gave an inhibition of 55%.

Consider `Cc1sc(C(=O)Nc2nn[nH]n2)c(OC(C)C)c1Br`, for which the inhibition at 33 µM in data set [1] was found to be 97%. In data set [2], the concentration in solution (solubility) came to 3300 µg/mL (≈ 9.53 mM). It took 2 µM to reach half-maximal inhibition in data set [3] (IC50). The molecule further registered a chromatographic logD in data set [4] of 1.72. This molecule showed an inhibition at 10 µM in data set [5] of 85%.

With `Cc1sc(C(=O)Nc2nn[nH]n2)c(OCc2ccccc2)c1Br`, at 33 µM the inhibition in data set [1] was 91%. In data set [3], the IC50 worked out at 5 µM. In data set [5], this molecule yielded an inhibition at 10 µM of 68%.

In data set [1], `COc1ccc2c(c1)c(OC(C)C)c(C(=O)Nc1nn[nH]n1)n2-c1ccccc1` had an inhibition at 33 µM of 82%. This molecule also registered a solubility in data set [2] of 70 µg/mL (≈ 0.178 mM). Besides, the chromatographic logD in data set [4] is 2.66. This molecule showed an inhibition at 10 µM in data set [5] of 46%.

As for `COc1ccc2c(c1)c1oc(C(=O)Nc3nn[nH]n3)c(OC)c1n2-c1ccccc1`, the inhibition at 33 µM in data set [1] was 91%. The same molecule returned a solubility in data set [2] below 1 µg/mL. Also, it took 8.5 µM to reach half-maximal inhibition in data set [3] (IC50). The same molecule displayed a chromatographic logD in data set [4] of 2.8. This molecule registered an inhibition at 10 µM in data set [5] of 66%.

In data set [1], `COc1c(Br)cc(C(=O)Nc2nn[nH]n2)c(OC(C)C)c1Br` registered an inhibition at 33 µM of 28%. The molecule also returned an inhibition at 10 µM in data set [5] below 25%.

In turn, `CC(C)Oc1c(Br)c(Br)n(Cc2ccccc2)c1C(=O)Nc1nn[nH]n1` returned an inhibition at 33 µM in data set [1] below 25%. For the same molecule, the inhibition at 10 µM in data set [5] was below 25%.

On to `CC(C)Oc1c(C(=O)Nc2nn[nH]n2)[nH]c(Br)c1Br`, for which the inhibition at 33 µM in data set [1] was below 25%. This molecule came in with an inhibition at 10 µM in data set [5] below 25%.

In turn, `CC(C)Oc1c(Br)c(Br)n(-c2ccccc2)c1C(=O)Nc1nn[nH]n1` came in with an inhibition at 33 µM in data set [1] below 25%. The inhibition at 10 µM in data set [5] is below 25%.

For `Cc1cc(OC(C)C)c(C(=O)Nc2nn[nH]n2)s1`, the inhibition at 33 µM in data set [1] is below 25%. Moreover, the inhibition at 10 µM in data set [5] was below 25%.

In data set [1], `Cc1sc(C(=O)Nc2nn[nH]n2)c(OC(C)C)c1OC(C)C` showed an inhibition at 33 µM below 25%. The same molecule returned an inhibition at 10 µM in data set [5] below 25%.

For the molecule `COc1ccc(C(=O)Nc2nn[nH]n2)c(OC(C)C)c1[Si](C)(C)C`, the inhibition at 33 µM in data set [1] is below 25%. Also, the inhibition at 10 µM in data set [5] was below 25%.

For the molecule `COc1ccc(C(=O)Nc2nn[nH]n2)c(OC(C)C)c1Br`, at 33 µM the inhibition in data set [1] was 60%. Besides, the inhibition at 10 µM in data set [5] was below 25%.

The molecule `CC(C)Oc1c(Br)csc1C(=O)Nc1nn[nH]n1` had an inhibition at 33 µM in data set [1] of 47%. For the same molecule, the inhibition at 10 µM in data set [5] was found to be 30%.

With `CC(C)Oc1c(C(=O)Nc2nn[nH]n2)sc(-c2ccccc2)c1Br`, the inhibition at 33 µM in data set [1] is below 25%. The inhibition at 10 µM in data set [5] was below 25%.

As for `COc1ccc(C(=O)Nc2nn[nH]n2)c(OC(C)C)c1`, in data set [1], the inhibition at 33 µM worked out at 41%. The molecule also displayed an inhibition at 10 µM in data set [5] below 25%.

In turn, `CC(C)Sc1c(C(=O)Nc2nn[nH]n2)oc(Br)c1Br` showed an inhibition at 33 µM in data set [1] below 25%. The same molecule had an inhibition at 10 µM in data set [5] below 25%.

`COc1ccc(C(=O)Nc2nn[nH]n2)c(OC(C)C)c1I`: the inhibition at 33 µM in data set [1] is 73%. In data set [3], inhibition was half-maximal at 10 µM (IC50). The chromatographic logD in data set [4] came out at 1.17. This molecule returned an inhibition at 10 µM in data set [5] of 51%.

In data set [1], `Cc1sc(C(=O)Nc2nn[nH]n2)c(OC(C)C)c1C` displayed an inhibition at 33 µM below 25%. The inhibition at 10 µM in data set [5] is below 25%.

The molecule `Cc1sc(C(=O)Nc2nn[nH]n2)c(OC(C)C)c1C(C)C` had an inhibition at 33 µM in data set [1] below 25%. In addition, the inhibition at 10 µM in data set [5] was below 25%.

In data set [1], `COc1c(C(=O)Nc2nn[nH]n2)sc(C)c1Br` gave an inhibition at 33 µM of 53%. In data set [5], this molecule registered an inhibition at 10 µM below 25%.

In the case of `CCCc1c2oc(C(=O)O)cc(=O)c2cc2c(=O)cc(C(=O)O)n(CC)c12` [NEDOCROMIL], in data set [1], the inhibition at 33 µM was below 25%. In data set [5], this molecule yielded an inhibition at 10 µM below 25%.
